In patent publication US6472526B1, “Imidazole derivatives having an inhibitory activity for farnesyl transferase and process for preparation thereof” (LG Chemical Ltd., priority 1997, dated 2002) one finds IC50 data, which are given here for 16 molecules.

Assay [1] deals with T1, Ras farnesyl transferase (Homo sapiens, UniProt P49354+P49356).
T1 construct: made in house
In words: In vitro inhibitory activity for Ras farnesyl transferase, H-Ras substrate. The format is biochemical.

Assay [2] concerns the target T2, Ras farnesyl transferase (Rattus norvegicus, UniProt Q02293+Q04631).
T2 construct: endogenous in cells; host or cells: Rat2 fibroblasts transformed with H-Ras or with an H-Ras/K-Ras C-terminus fusion
In words: In vivo (cellular) inhibitory activity for Ras farnesyl transferase, Rat2 cell line transformed with fused protein of H-Ras substituted with polybasic lysine domain at C-terminus of K-Ras. The format is cell-based. The method in brief: (§1)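 Transformed Rat2 fibroblasts (H-Ras or H-Ras/K-Ras polybasic-tail fusion) treated with compound in 1% DMSO; after 4 h labelled with [35S]methionine 150 μCi/ml for 20 h. Lysates immunoprecipitated with anti-Ras Y13-259, resolved by 13.5% SDS-PAGE and autoradiography; CIC50 = concentration inhibiting 50% of Ras farnesylation from band intensities.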

Assay [3] has as its target T2, Ras farnesyl transferase. In words: In vivo (cellular) inhibitory activity for Ras farnesyl transferase, Rat2 cell line which expresses C-Harvey-Ras protein. The assay is classed as cell-based. The method in brief:
as §1

Assay [4] deals with T1, Ras farnesyl transferase. In words: In vitro inhibitory activity for Ras farnesyl transferase, K-Ras substrate. The assay is classed as biochemical.
[5] abbreviates: recombinant farnesyl transferase 4.5 nM, Ras substrate protein 1.5 μM, tritium-farnesylpyrophosphate 0.15 μM, 30 minutes at 37° C., read-out: H-Ras IC50.
[6] abbreviates: Rat2 cell line transformed with H-Ras fused with polybasic lysine domain of K-Ras C-terminus, concentration inhibiting 50% of farnesyl bonding, read-out: K-Ras CIC50.
Where [7] appears, read: Rat2 cell line expressing C-Harvey-Ras, concentration inhibiting 50% of farnesyl bonding of Ras protein, read-out: H-Ras CIC50.
Setting [8] is: in vitro farnesyl transferase assay, K-Ras, read-out: K-Ras IC50.

On to `CN1CCN(C(=O)c2cn(Cc3cncn3Cc3ccccc3F)cc2-c2cccc3ccccc23)CC1` [Compound 135, 1-[1-(2-Fluorobenzyl)-1H-imidazol-5-yl]methyl-3-(4-methylpiperazin-1-yl)carbonyl-4-(naphthalen-1-yl)-1H-pyrrole], for which the IC50 at Ras farnesyl transferase [1] (setting [5]) is 2.4 nM; on Ras farnesyl transferase [2] (setting [6]), 10 to 50 µM; on Ras farnesyl transferase [3] (setting [7]), 30 nM; at Ras farnesyl transferase [4] (setting [8]), 4 nM.

For `Cc1ccc(Cn2cncc2Cn2cc(C(=O)N3CCN(C)CC3)c(-c3cccc4ccccc34)c2)cc1` [Compound 136], the IC50 was 1.6 nM at Ras farnesyl transferase [1] (setting [5]), 10 to 50 µM on Ras farnesyl transferase [2] (setting [6]), 25 nM at Ras farnesyl transferase [3] (setting [7]) and 2.4 nM at Ras farnesyl transferase [4] (setting [8]).

Consider `Cc1ccc(Cn2cncc2Cn2cc(C(=O)N3CCOCC3)c(-c3cccc4ccccc34)c2)cc1` [Compound 137], for which the IC50 is 1.7 nM at Ras farnesyl transferase [1] (setting [5]), 10 to 20 µM at Ras farnesyl transferase [2] (setting [6]), 20 nM at Ras farnesyl transferase [3] (setting [7]) and 2.1 nM on Ras farnesyl transferase [4] (setting [8]).

For the molecule `Cc1cccc(Cn2cncc2Cn2cc(C(=O)N3CCN(C)CC3)c(-c3cccc4ccccc34)c2)c1` [Compound 138, 1-[1-(3-Methylbenzyl)-1H-imidazol-5-yl]methyl-3-(4-methylpiperazin-1-yl)carbonyl-4-(naphthalen-1-yl)-1H-pyrrole], the IC50 is 1.4 nM on Ras farnesyl transferase [1] (setting [5]), 10 to 50 µM on Ras farnesyl transferase [2] (setting [6]), 25 nM on Ras farnesyl transferase [3] (setting [7]) and 3.5 nM at Ras farnesyl transferase [4] (setting [8]).

As to `N#Cc1ccc(Cn2cncc2Cn2ccc(C(=O)c3cccc4ccccc34)c2)cc1` [Compound 139, 1-[1-(4-Cyanobenzyl)-1H-imidazol-5-yl]methyl-3-(naphthalen-1-yl)carbonyl-1H-pyrrole], the IC50 turned out to be 5 nM on Ras farnesyl transferase [1], 7 µM against Ras farnesyl transferase [2], 70 nM against Ras farnesyl transferase [3] and 37000 nM on Ras farnesyl transferase [4].

Turning to `O=C(c1ccn(Cc2cncn2Cc2ccc(Br)cc2)c1)c1cccc2ccccc12` [Compound 140, 1-[1-(4-Bromobenzyl)-1H-imidazol-5-yl]methyl-3-(naphthalen-1-yl)carbonyl-1H-pyrrole], the IC50 was 90 nM at Ras farnesyl transferase [1], 10 to 50 µM against Ras farnesyl transferase [2], 1000 to 10000 nM against Ras farnesyl transferase [3] and 10000 to 50000 nM against Ras farnesyl transferase [4].

In the case of `COCCN(C)C(=O)c1cn(Cc2cncn2Cc2ccc(Br)cc2)cc1C(=O)c1cccc2ccccc12` [Compound 141], the IC50 at Ras farnesyl transferase [1] was 230 nM; against Ras farnesyl transferase [2] it was 10 to 50 µM; against Ras farnesyl transferase [3], 1000 to 10000 nM; against Ras farnesyl transferase [4] it was 10000 to 100000 nM.

In the case of `CCOC(=O)c1nc(Cc2cnc[nH]2)oc1-c1cccc2ccccc12` [Compound 142, 4-Ethoxycarbonyl-2-(1H-imidazol-5-ylmethyl)-5-(naphthalen-1-yl)oxazole], the IC50 at Ras farnesyl transferase [1] (setting [5]) was 12000 nM; on Ras farnesyl transferase [2] (setting [6]), > 50 µM; at Ras farnesyl transferase [3] (setting [7]) it was > 50000 nM; at Ras farnesyl transferase [4] (setting [8]) it was > 50000 nM.

Take `O=C(c1nc(Cc2cnc[nH]2)oc1-c1cccc2ccccc12)N1CCOCC1` [Compound 143, 2-(1H-Imidazol-5-ylmethyl)-4-(morpholin-4-yl)carbonyl-5-(naphthalen-1-yl)oxazole]: the IC50 on Ras farnesyl transferase [1] (setting [5]) was 1200 nM; at Ras farnesyl transferase [2] (setting [6]), > 50 µM; on Ras farnesyl transferase [3] (setting [7]), 20000 nM; on Ras farnesyl transferase [4] (setting [8]), > 50000 nM.

Consider `COC(=O)c1nc(Cc2cncn2Cc2ccc(Cl)cc2)sc1-c1cccc2ccccc12` [Compound 145, 2-[1-(4-Chlorobenzyl)-1H-imidazol-5-ylmethyl]-4-methoxycarbonyl-5-(naphthalen-1-yl)thiazole], for which the IC50 at Ras farnesyl transferase [1] (setting [5]) came to 7 nM; on Ras farnesyl transferase [2] (setting [6]), 25 µM; on Ras farnesyl transferase [3] (setting [7]) it was 100 nM; at Ras farnesyl transferase [4] (setting [8]), 70 nM.

Take `COC(=O)c1sc(Cc2cncn2Cc2ccc(Cl)cc2)nc1-c1cccc2ccccc12` [Compound 148]: the IC50 is 1700 nM on Ras farnesyl transferase [1] (setting [5]), > 50 µM on Ras farnesyl transferase [2] (setting [6]), 30000 nM at Ras farnesyl transferase [3] (setting [7]) and > 50000 nM at Ras farnesyl transferase [4] (setting [8]).

For the molecule `COC(=O)c1sc(Cc2cncn2CC2CCN(C(=O)OCc3ccccc3)CC2)nc1-c1cccc2ccccc12` [Compound 150], the IC50 at Ras farnesyl transferase [1] (setting [5]) was 8000 nM; at Ras farnesyl transferase [2] (setting [6]), > 50 µM; at Ras farnesyl transferase [3] (setting [7]), > 50000 nM; on Ras farnesyl transferase [4] (setting [8]), > 50000 nM.

Turning to `COCCN(C)C(=O)c1cn(Cc2cncn2Cc2ccc(Cl)cc2)nc1-c1cccc2ccccc12` [Compound 155, 1-[1-(4-Chlorobenzyl)-1H-imidazol-5-ylmethyl]-4-[N-(2-methoxyethyl)-N-methyl]-carbamoyl-3-(naphthalen-1-yl)-1H-pyrazole], the IC50 at Ras farnesyl transferase [1] (setting [5]) was determined as 20 nM; at Ras farnesyl transferase [2] (setting [6]), 15 µM; at Ras farnesyl transferase [3] (setting [7]), 100 nM; at Ras farnesyl transferase [4] (setting [8]) it was 200 nM.

`COCCN(C)C(=O)c1cn(Cc2cncn2Cc2ccc(C#N)cc2)nc1-c1cccc2ccccc12` [Compound 156, 1-[1-(4-Cyanobenzyl)-1H-imidazol-5-ylmethyl]-4-[N-(2-methoxyethyl)-N-methyl]-carbamoyl-3-(naphthalen-1-yl)-1H-pyrazole]: the IC50 amounted to 20 nM at Ras farnesyl transferase [1] (setting [5]), 40 µM on Ras farnesyl transferase [2] (setting [6]), 100 nM on Ras farnesyl transferase [3] (setting [7]) and 200 nM on Ras farnesyl transferase [4] (setting [8]).

For the molecule `COCCN(C)C(=O)c1cn(Cc2cncn2C)nc1-c1cccc2ccccc12` [Compound 157, 1-[1-Methyl-1H-imidazol-5-ylmethyl]-4-[N-(2-methoxyethyl)-N-methyl]-carbamoyl-3-(naphthalen-1-yl)-1H-pyrazole], the IC50 at Ras farnesyl transferase [1] (setting [5]) was 10 nM; on Ras farnesyl transferase [2] (setting [6]) it was > 50 µM; at Ras farnesyl transferase [3] (setting [7]), 100 nM; on Ras farnesyl transferase [4] (setting [8]), 5000 nM.

Consider `O=C(c1cn(Cc2cncn2Cc2ccc(Br)cc2)nc1-c1cccc2ccccc12)N1CCOCC1` [Compound 160, 1-[1-(4-Bromobenzyl)-1H-imidazol-5-ylmethyl]-4-(morpholin-4-yl)carbonyl-3-(naphthalen-1-yl)-1H-pyrazole], for which the IC50 amounted to 300 nM on Ras farnesyl transferase [1] (setting [5]), 40 µM on Ras farnesyl transferase [2] (setting [6]), 1500 nM at Ras farnesyl transferase [3] (setting [7]) and 3000 nM on Ras farnesyl transferase [4] (setting [8]).
